Laboratory results: patent US7820623B2 (priority 2006, dated 2010)
Bridge positions count the residues as written; N and C are the ends. Square brackets hold non-standard residues; d marks the D form. Peptide text beside a SMILES is read from it. 1Nal = N[C@@H](Cc1cccc2ccccc12)C(=O)O

Columns and labels:
[1] = test system: thapsigargin-induced IFN-g production in human whole blood; format: cell-based; details: read-out: Analogue Activity (IC50) WB/IFNg
[2] = test system: thapsigargin-induced IL-2 production in human whole blood; details: read-out: Analogue Activity (IC50) WB/IL-2

CC[C@H](C)[C@@H]1NC(=O)[C@H](CCCCN)NC(=O)[C@@H](NC(=O)[C@H](CCCCN)NC(=O)[C@@H](NC(=O)[C@H](CC(N)=O)NC(=O)[C@@H](NC(=O)[C@@H](NC(=O)[C@@H](NC(=O)CN)C(C)C)[C@@H](C)CC)[C@@H](C)CC)C(C)C)CSSC[C@@H]2NC(=O)[C@H](CCCCN)NC(=O)CNC(=O)[C@H](Cc3ccccc3)NC(=O)[C@H](CCCNC(=N)N)NC(=O)[C@H](CCSC)NC(=O)CNC(=O)[C@H](C)NC(=O)[C@H](CCCCN)NC(=O)[C@H](CCCCN)NC(=O)[C@@H]3CSSC[C@@H](C(=O)N[C@H](C(=O)N4CCC[C@H]4C(=O)N[C@@H](CCCCN)C(=O)O)[C@@H](C)O)NC(=O)[C@H](Cc4c[nH]cn4)NC(=O)[C@H](CSSC[C@H](NC(=O)[C@H](CCC(N)=O)NC(=O)[C@H](CCCNC(=N)N)NC(=O)[C@H](C)NC1=O)C(=O)N[C@@H](CC(C)C)C(=O)N[C@@H](CCC(=O)O)C(=O)N1CCC[C@H]1C(=O)N3)NC(=O)[C@H](CCCCN)NC(=O)CNC(=O)[C@H](CC(N)=O)NC(=O)[C@H](CCSC)NC2=O [S11A] (H-GVIINVKCKIARQCLEPCKKAGMRFGKCMNGKCHCTPK-OH; disulfide 8-28, 14-33, 18-35)
IC50 [1]: 0.11 nM
IC50 [2]: 0.09 nM

CC[C@H](C)[C@@H]1NC(=O)[C@H](CCCCN)NC(=O)[C@@H](NC(=O)[C@H](CCCCN)NC(=O)[C@@H](NC(=O)[C@H](CC(N)=O)NC(=O)[C@@H](NC(=O)[C@@H](NC(=O)[C@@H](NC(=O)CN)C(C)C)[C@@H](C)CC)[C@@H](C)CC)C(C)C)CSSC[C@@H]2NC(=O)[C@H](CCCCN)NC(=O)CNC(=O)[C@H](Cc3ccccc3)NC(=O)[C@H](CCCNC(=N)N)NC(=O)[C@H](CCSC)NC(=O)CNC(=O)[C@H](C)NC(=O)[C@H](CCCCN)NC(=O)[C@H](CCCCN)NC(=O)[C@@H]3CSSC[C@@H](C(=O)N[C@@H](CCCNC(=N)N)C(=O)N4CCC[C@H]4C(=O)N[C@@H](CCCCN)C(=O)O)NC(=O)[C@H](Cc4c[nH]cn4)NC(=O)[C@H](CSSC[C@H](NC(=O)[C@H](CCC(N)=O)NC(=O)[C@H](CCCNC(=N)N)NC(=O)[C@H](CO)NC1=O)C(=O)N[C@@H](CC(C)C)C(=O)N[C@@H](CCC(=O)O)C(=O)N1CCC[C@H]1C(=O)N3)NC(=O)[C@H](CCCCN)NC(=O)CNC(=O)[C@H](CC(N)=O)NC(=O)[C@H](CCSC)NC2=O [T36R] (H-GVIINVKCKISRQCLEPCKKAGMRFGKCMNGKCHCRPK-OH; disulfide 8-28, 14-33, 18-35)
IC50 [1]: 10.1 nM
IC50 [2]: 9.7 nM

CC[C@H](C)[C@H](NC(=O)[C@H](C)NC(=O)CN)C(=O)N[C@H](C(=O)N[C@@H](CC(N)=O)C(=O)N[C@H](C(=O)N[C@@H](CCCCN)C(=O)N[C@H]1CSSC[C@@H]2NC(=O)[C@H](CCCCN)NC(=O)CNC(=O)[C@H](Cc3ccccc3)NC(=O)[C@H](CCCNC(=N)N)NC(=O)[C@H](CCSC)NC(=O)CNC(=O)[C@H](C)NC(=O)[C@H](CCCCN)NC(=O)[C@H](CCCCN)NC(=O)[C@@H]3CSSC[C@@H](C(=O)N[C@H](C(=O)N4CCC[C@H]4C(=O)N[C@@H](CCCCN)C(=O)O)[C@@H](C)O)NC(=O)[C@H](Cc4c[nH]cn4)NC(=O)[C@H](CSSC[C@H](NC(=O)[C@H](CCC(N)=O)NC(=O)[C@H](CCCNC(=N)N)NC(=O)[C@H](CO)NC(=O)[C@H]([C@@H](C)CC)NC(=O)[C@H](CCCCN)NC1=O)C(=O)N[C@@H](CC(C)C)C(=O)N[C@@H](CCC(=O)O)C(=O)N1CCC[C@H]1C(=O)N3)NC(=O)[C@H](CCCCN)NC(=O)CNC(=O)[C@H](CC(N)=O)NC(=O)[C@H](CCSC)NC2=O)C(C)C)[C@@H](C)CC [V2A] (H-GAIINVKCKISRQCLEPCKKAGMRFGKCMNGKCHCTPK-OH; disulfide 8-28, 14-33, 18-35)
IC50 [1]: 0.104 nM
IC50 [2]: 0.0884 nM

CC[C@H](C)[C@@H]1NC(=O)[C@H](CCCCN)NC(=O)[C@@H](NC(=O)[C@H](CCCCN)NC(=O)[C@@H](NC(=O)[C@H](CC(N)=O)NC(=O)[C@@H](NC(=O)[C@@H](NC(=O)[C@H](CCC(=O)O)NC(=O)CN)[C@@H](C)CC)[C@@H](C)CC)C(C)C)CSSC[C@@H]2NC(=O)[C@H](CCCCN)NC(=O)CNC(=O)[C@H](Cc3ccccc3)NC(=O)[C@H](CCCNC(=N)N)NC(=O)[C@H](CCSC)NC(=O)CNC(=O)[C@H](C)NC(=O)[C@H](CCCCN)NC(=O)[C@H](CCCCN)NC(=O)[C@@H]3CSSC[C@@H](C(=O)N[C@H](C(=O)N4CCC[C@H]4C(=O)N[C@@H](CCCCN)C(=O)O)[C@@H](C)O)NC(=O)[C@H](Cc4c[nH]cn4)NC(=O)[C@H](CSSC[C@H](NC(=O)[C@H](CCC(N)=O)NC(=O)[C@H](CCCNC(=N)N)NC(=O)[C@H](CO)NC1=O)C(=O)N[C@@H](CC(C)C)C(=O)N[C@@H](CCC(=O)O)C(=O)N1CCC[C@H]1C(=O)N3)NC(=O)[C@H](CCCCN)NC(=O)CNC(=O)[C@H](CC(N)=O)NC(=O)[C@H](CCSC)NC2=O [V2E] (H-GEIINVKCKISRQCLEPCKKAGMRFGKCMNGKCHCTPK-OH; disulfide 8-28, 14-33, 18-35)
IC50 [1]: 0.184 nM
IC50 [2]: 0.097 nM

CC[C@H](C)[C@@H]1NC(=O)[C@H](CCCCN)NC(=O)[C@@H](NC(=O)[C@H](CCCCN)NC(=O)[C@@H](NC(=O)[C@H](CC(N)=O)NC(=O)[C@@H](NC(=O)[C@@H](NC(=O)[C@H](Cc2cccc3ccccc23)NC(=O)CN)[C@@H](C)CC)[C@@H](C)CC)C(C)C)CSSC[C@@H]2NC(=O)[C@H](CCCCN)NC(=O)CNC(=O)[C@H](Cc3ccccc3)NC(=O)[C@H](CCCNC(=N)N)NC(=O)[C@H](CCSC)NC(=O)CNC(=O)[C@H](C)NC(=O)[C@H](CCCCN)NC(=O)[C@H](CCCCN)NC(=O)[C@@H]3CSSC[C@@H](C(=O)N[C@H](C(=O)N4CCC[C@H]4C(=O)N[C@@H](CCCCN)C(=O)O)[C@@H](C)O)NC(=O)[C@H](Cc4c[nH]cn4)NC(=O)[C@H](CSSC[C@H](NC(=O)[C@H](CCC(N)=O)NC(=O)[C@H](CCCNC(=N)N)NC(=O)[C@H](CO)NC1=O)C(=O)N[C@@H](CC(C)C)C(=O)N[C@@H](CCC(=O)O)C(=O)N1CCC[C@H]1C(=O)N3)NC(=O)[C@H](CCCCN)NC(=O)CNC(=O)[C@H](CC(N)=O)NC(=O)[C@H](CCSC)NC2=O [V2Nal] (H-G[1Nal]IINVKCKISRQCLEPCKKAGMRFGKCMNGKCHCTPK-OH; disulfide 8-28, 14-33, 18-35)
IC50 [1]: 0.524 nM
IC50 [2]: 0.75 nM

CC[C@H](C)[C@@H]1NC(=O)[C@H](CCCCN)NC(=O)[C@@H](NC(=O)[C@H](CCCCN)NC(=O)[C@@H](NC(=O)[C@H](CC(N)=O)NC(=O)[C@@H](NC(=O)[C@@H](NC(=O)[C@H](CCCNC(=N)N)NC(=O)CN)[C@@H](C)CC)[C@@H](C)CC)C(C)C)CSSC[C@@H]2NC(=O)[C@H](CCCCN)NC(=O)CNC(=O)[C@H](Cc3ccccc3)NC(=O)[C@H](CCCNC(=N)N)NC(=O)[C@H](CCSC)NC(=O)CNC(=O)[C@H](C)NC(=O)[C@H](CCCCN)NC(=O)[C@H](CCCCN)NC(=O)[C@@H]3CSSC[C@@H](C(=O)N[C@H](C(=O)N4CCC[C@H]4C(=O)N[C@@H](CCCCN)C(=O)O)[C@@H](C)O)NC(=O)[C@H](Cc4c[nH]cn4)NC(=O)[C@H](CSSC[C@H](NC(=O)[C@H](CCC(N)=O)NC(=O)[C@H](CCCNC(=N)N)NC(=O)[C@H](CO)NC1=O)C(=O)N[C@@H](CC(C)C)C(=O)N[C@@H](CCC(=O)O)C(=O)N1CCC[C@H]1C(=O)N3)NC(=O)[C@H](CCCCN)NC(=O)CNC(=O)[C@H](CC(N)=O)NC(=O)[C@H](CCSC)NC2=O [V2R] (H-GRIINVKCKISRQCLEPCKKAGMRFGKCMNGKCHCTPK-OH; disulfide 8-28, 14-33, 18-35)
IC50 [1]: 0.986 nM
IC50 [2]: 0.775 nM

CC[C@H](C)[C@@H]1NC(=O)[C@H](CCCCN)NC(=O)[C@@H](NC(=O)[C@H](CCCCN)NC(=O)[C@H](C)NC(=O)[C@H](CC(N)=O)NC(=O)[C@@H](NC(=O)[C@@H](NC(=O)[C@@H](NC(=O)CN)C(C)C)[C@@H](C)CC)[C@@H](C)CC)CSSC[C@@H]2NC(=O)[C@H](CCCCN)NC(=O)CNC(=O)[C@H](Cc3ccccc3)NC(=O)[C@H](CCCNC(=N)N)NC(=O)[C@H](CCSC)NC(=O)CNC(=O)[C@H](C)NC(=O)[C@H](CCCCN)NC(=O)[C@H](CCCCN)NC(=O)[C@@H]3CSSC[C@@H](C(=O)N[C@H](C(=O)N4CCC[C@H]4C(=O)N[C@@H](CCCCN)C(=O)O)[C@@H](C)O)NC(=O)[C@H](Cc4c[nH]cn4)NC(=O)[C@H](CSSC[C@H](NC(=O)[C@H](CCC(N)=O)NC(=O)[C@H](CCCNC(=N)N)NC(=O)[C@H](CO)NC1=O)C(=O)N[C@@H](CC(C)C)C(=O)N[C@@H](CCC(=O)O)C(=O)N1CCC[C@H]1C(=O)N3)NC(=O)[C@H](CCCCN)NC(=O)CNC(=O)[C@H](CC(N)=O)NC(=O)[C@H](CCSC)NC2=O [V6A] (H-GVIINAKCKISRQCLEPCKKAGMRFGKCMNGKCHCTPK-OH; disulfide 8-28, 14-33, 18-35)
IC50 [1]: 0.0805 nM
IC50 [2]: 0.0733 nM

CC[C@H](C)[C@@H]1NC(=O)[C@H](CCCCN)NC(=O)[C@@H](NC(=O)[C@H](CCCCN)NC(=O)[C@H](CCC(=O)O)NC(=O)[C@H](CC(N)=O)NC(=O)[C@@H](NC(=O)[C@@H](NC(=O)[C@@H](NC(=O)CN)C(C)C)[C@@H](C)CC)[C@@H](C)CC)CSSC[C@@H]2NC(=O)[C@H](CCCCN)NC(=O)CNC(=O)[C@H](Cc3ccccc3)NC(=O)[C@H](CCCNC(=N)N)NC(=O)[C@H](CCSC)NC(=O)CNC(=O)[C@H](C)NC(=O)[C@H](CCCCN)NC(=O)[C@H](CCCCN)NC(=O)[C@@H]3CSSC[C@@H](C(=O)N[C@H](C(=O)N4CCC[C@H]4C(=O)N[C@@H](CCCCN)C(=O)O)[C@@H](C)O)NC(=O)[C@H](Cc4c[nH]cn4)NC(=O)[C@H](CSSC[C@H](NC(=O)[C@H](CCC(N)=O)NC(=O)[C@H](CCCNC(=N)N)NC(=O)[C@H](CO)NC1=O)C(=O)N[C@@H](CC(C)C)C(=O)N[C@@H](CCC(=O)O)C(=O)N1CCC[C@H]1C(=O)N3)NC(=O)[C@H](CCCCN)NC(=O)CNC(=O)[C@H](CC(N)=O)NC(=O)[C@H](CCSC)NC2=O [V6E] (H-GVIINEKCKISRQCLEPCKKAGMRFGKCMNGKCHCTPK-OH; disulfide 8-28, 14-33, 18-35)
IC50 [1]: 0.068 nM
IC50 [2]: 0.048 nM
